Values joined by “and” are separate entries in the source; they are usually repeats but may differ in a detail not shown here. Identical values can stand only once. Like-named read-outs stand apart in the source and are kept apart here.
How the values were obtained:
Type in all cases: cell-based
[1] = biological target: T1, α1β2 GABAA receptors (Rattus norvegicus, UniProt P62813+P63138); assay: Two electrode voltage clamp in Xenopus laevis oocytes, α1β2
T1 construct: expressed in transfected cells; host or cells: Xenopus laevis oocytes, mRNA injected
Method in brief: (§1)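 Oocytes were injected with 4.5 ng of capped, polyadenylated rat subunit cRNA, mixed 1:1 for αβ and 1:1:5 for αβγ2 combinations. They were kept at 18 °C for 2–3 days (αβ) or 3–4 days (αβγ) and then recorded in Ca²⁺-containing NDE buffer at pH 7.5.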

[2] = biological target: T2, α1β3 GABAA receptors (Rattus norvegicus, UniProt P62813+P63079); assay: Two electrode voltage clamp in Xenopus laevis oocytes, α1β3
T2 construct: expressed in transfected cells; host or cells: Xenopus laevis oocytes, mRNA injected
Method in brief: (§2)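 Currents are recorded in NDE medium (96 mM NaCl, 2 mM KCl, 1 mM MgCl2, 1.8 mM CaCl2, 5 mM HEPES, pH 7.5). Receptors come from 4.5 ng of injected cRNA, mixed 1:1 (αβ) or 1:1:5 (αβγ2).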

[3] = biological target: T3, α1β3N41R GABAA receptors (Rattus norvegicus, UniProt P62813+P63079, N66R); assay: Two electrode voltage clamp in Xenopus laevis oocytes, mutant α1β3N41R; conditions: co-applied with GABA EC3-5, read-out: EC50 values for the mutated receptors
T3 construct: expressed in transfected cells; host or cells: Xenopus laevis oocytes, mRNA injected
Method in brief: as §2

[4] = biological target: T4, α3β3 GABAA receptors (Rattus norvegicus, UniProt P20236+P63079); assay: Two electrode voltage clamp in Xenopus laevis oocytes, α3β3
T4 construct: expressed in transfected cells; host or cells: Xenopus laevis oocytes, mRNA injected
Description: (§3) cDNA’s of rat GABAA receptor subunits α1, α4, β1, β2, β3 and γ2S were cloned as described. cDNAs of the rat subunits α2, α3 and α5 were gifts from P. Malherbe, that of α6 and γ1 were gifts of P. Seeburg and that of δ was a gift of C. Czajkowski. The mutants were constructed using the Q5 Site-Directed Mutagenesis Kit (New England Biolabs) following manufacturer’s instruction. We used the wild-type rat β3-pCI vector as template and the primers […] and […] resulting in a substitution of amino acid N41 (AAC) to R (AGG). We used the wild-type rat β1-pCI vector as template and the primers […] and […] resulting in a substitution of amino acid R41 (CGG) to N (AAC). The mutated subunits were confirmed by sequencing.
(§4) In vitro transcription of mRNA was based on the cDNA expression vectors encoding for rat GABAA receptor subunits α1–6, β1-3, γ1,2, δ and the two β mutants (β1R41N and β3N41R)[40]. After linearizing the cDNA vectors with appropriate restriction endonucleases, the cDNA was purified and concentrated with the DNA Clean and Contentrator ^TM Kit (Zymoresearch, Catalog No. D4005). Capped transcripts of the purified cDNA were produced using the mMESSAGE mMACHINE® T7 transcription kit (Ambion, TX, USA) and polyadenylated using the Ambion PolyA tailing kit (Ambion). After transcription and polyadenylation the RNA was purified with the MEGAclear ^TM Kit (Ambion, Catalog No. AM1908). The final RNA concentration was measured on NanoDrop® ND-1000 and finally diluted and stored in diethylpyrocarbonate-treated water at −80 °C. For the microinjection, the RNA of αβ receptor combinations was mixed at 1:1 ratio (which leads to αβ receptors that consist of predominantly 3 beta and 2 alpha subunits[27]), for αkβlγm (k = 1–3, l = 1, 3, m = 1, 2) receptors at 1:1:5 ratio, for αkβ3γ2 (k = 4–6) and αkβlδ (k = 1, 4 and 6, l = 1, 3) receptor combinations at 3:1:5 ratio.
(§5) Mature female Xenopus laevis (Nasco, WI) were anesthetized in a bath of ice-cold 0.17% Tricain (Ethyl-m-aminobenzoate, Sigma, MO) before decapitation in full accordance with all rules of the Austrian animal protection law (see http://www.ris.bka.gv.at/Dokumente/BgblAuth/BGBLA_2012_I_114/BGBLA_2012_I_114.pdf) and the Austrian animal experiment by-laws (see https://www.ris.bka.gv.at/Dokumente/BgblAuth/BGBLA_2012_II_522/BGBLA_2012_II_522.pdf) which implement the European Directive 2010/63/EU (see http://eur-lex.europa.eu/LexUriServ/LexUriServ.do?uri=OJ:L:2010:276:0033:0079:en:PDF) into the Austrian law (all information accessed on July 27, 2016). The frog’s ovaries were transferred to ND96 medium (96 mM NaCl, 2 mM KCl, 1 mM MgCl2, 5 mM HEPES; pH 7.5). Stage 5–6 oocytes with the follicle cell layer around them were roughly dissected with forceps into packages of 10–15 cells and washed in Ca^2+-free ND96 medium. Cells were then digested with collagenase (type IA, Sigma, NO, 1 mg/mL ND96) at 18 °C shaking at 30 rpm for 30–60 minutes and gently defolliculated with the aid of a glass pipette with appropriate tip diameter and a platinum loop. Defolliculated cells were stored at 18 °C for at least 6 hours in ND96 solution containing penicillin G (10000 IU/100 mL) and streptomycin (10 mg/100 mL) in order to preselect and exclude damaged cells from further treatment. Healthy defolliculated oocytes were injected with an aqueous solution of mRNA. A total of 4.5 ng of mRNA per oocyte was injected with a Nanoject II (Drummond). After injection of mRNA, oocytes were incubated at 18 °C (ND96 + antibiotic) for 2–3 days for αβ receptors and for 3–4 days for αβγ or αβδ receptors before recording. When cells were measured at later time points, oocytes were stored at +4 °C instead of 18 °C.
(§6) For electrophysiological recordings, oocytes were placed on a nylon-grid in a bath of Ca^2+-containing NDE solution medium [96 mM NaCl, 5 mM HEPES-NaOH (pH 7.5), 2 mM KCl, 1 mM MgCl2, 1.8 mM CaCl2].

[5] = biological target: T5, α4β3γ2 GABAA receptors (Rattus norvegicus, UniProt P28471+P63079); assay: Two electrode voltage clamp in Xenopus laevis oocytes, α4β3γ2
T5 construct: expressed in transfected cells; host or cells: Xenopus laevis oocytes, mRNA injected
Description: as §3, §4, §5, §6

[6] = biological target: T6, α1β1 GABAA receptors (Rattus norvegicus, UniProt P15431+P62813); assay: Two electrode voltage clamp in Xenopus laevis oocytes, α1β1; conditions: α1β1
T6 construct: expressed in transfected cells; host or cells: Xenopus laevis oocytes, mRNA injected
Method in brief: as §1

[7] = biological target: T7, α1β1R41N GABAA receptors (Rattus norvegicus, UniProt P15431+P62813, R66N); assay: Two electrode voltage clamp in Xenopus laevis oocytes, mutant α1β1R41N; conditions: read-out: % of control current at EC3-5
T7 construct: expressed in transfected cells; host or cells: Xenopus laevis oocytes, mRNA injected
Method in brief: as §1

T4 sequence (P20236 29-493): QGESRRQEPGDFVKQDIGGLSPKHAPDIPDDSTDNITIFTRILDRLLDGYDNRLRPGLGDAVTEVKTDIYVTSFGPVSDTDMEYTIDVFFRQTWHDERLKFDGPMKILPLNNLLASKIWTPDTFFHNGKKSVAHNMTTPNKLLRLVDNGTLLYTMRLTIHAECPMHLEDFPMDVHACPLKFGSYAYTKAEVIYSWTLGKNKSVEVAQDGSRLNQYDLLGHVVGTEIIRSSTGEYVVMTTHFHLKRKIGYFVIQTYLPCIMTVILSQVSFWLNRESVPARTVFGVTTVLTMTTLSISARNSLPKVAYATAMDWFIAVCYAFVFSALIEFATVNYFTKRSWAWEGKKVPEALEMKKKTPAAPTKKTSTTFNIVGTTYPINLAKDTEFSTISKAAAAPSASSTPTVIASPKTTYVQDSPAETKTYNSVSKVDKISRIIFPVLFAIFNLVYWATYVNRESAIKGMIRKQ
T4 sequence (P63079 26-473): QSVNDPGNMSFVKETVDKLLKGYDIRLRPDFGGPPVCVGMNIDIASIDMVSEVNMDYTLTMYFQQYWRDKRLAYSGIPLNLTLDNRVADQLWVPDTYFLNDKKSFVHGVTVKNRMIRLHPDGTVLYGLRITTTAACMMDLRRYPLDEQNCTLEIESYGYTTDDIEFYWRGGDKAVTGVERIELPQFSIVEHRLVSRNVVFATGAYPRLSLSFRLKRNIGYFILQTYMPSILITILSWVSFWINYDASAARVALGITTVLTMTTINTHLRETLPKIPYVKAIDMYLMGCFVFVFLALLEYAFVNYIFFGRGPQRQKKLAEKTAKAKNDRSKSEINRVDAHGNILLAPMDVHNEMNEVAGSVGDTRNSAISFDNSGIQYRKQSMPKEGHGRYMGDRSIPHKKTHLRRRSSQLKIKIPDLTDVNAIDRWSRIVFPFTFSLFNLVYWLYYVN
T5 sequence (P28471 36-552): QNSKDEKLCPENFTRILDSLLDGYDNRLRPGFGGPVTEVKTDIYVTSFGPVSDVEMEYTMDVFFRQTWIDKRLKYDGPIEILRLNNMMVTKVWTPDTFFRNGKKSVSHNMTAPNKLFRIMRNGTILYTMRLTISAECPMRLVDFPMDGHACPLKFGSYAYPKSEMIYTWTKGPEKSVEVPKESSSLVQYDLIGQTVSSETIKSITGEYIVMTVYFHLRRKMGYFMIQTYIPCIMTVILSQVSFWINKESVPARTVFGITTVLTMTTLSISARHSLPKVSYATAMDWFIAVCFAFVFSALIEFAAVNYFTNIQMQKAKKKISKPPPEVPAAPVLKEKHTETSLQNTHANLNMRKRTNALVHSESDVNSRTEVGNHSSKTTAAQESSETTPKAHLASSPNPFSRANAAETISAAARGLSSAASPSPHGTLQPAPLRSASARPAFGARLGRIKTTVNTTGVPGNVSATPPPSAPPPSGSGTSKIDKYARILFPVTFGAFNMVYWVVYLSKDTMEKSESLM
T5 sequence (P63079 26-473): as the sequence (P63079 26-473) above
T5 sequence (P18508 39-466 partner): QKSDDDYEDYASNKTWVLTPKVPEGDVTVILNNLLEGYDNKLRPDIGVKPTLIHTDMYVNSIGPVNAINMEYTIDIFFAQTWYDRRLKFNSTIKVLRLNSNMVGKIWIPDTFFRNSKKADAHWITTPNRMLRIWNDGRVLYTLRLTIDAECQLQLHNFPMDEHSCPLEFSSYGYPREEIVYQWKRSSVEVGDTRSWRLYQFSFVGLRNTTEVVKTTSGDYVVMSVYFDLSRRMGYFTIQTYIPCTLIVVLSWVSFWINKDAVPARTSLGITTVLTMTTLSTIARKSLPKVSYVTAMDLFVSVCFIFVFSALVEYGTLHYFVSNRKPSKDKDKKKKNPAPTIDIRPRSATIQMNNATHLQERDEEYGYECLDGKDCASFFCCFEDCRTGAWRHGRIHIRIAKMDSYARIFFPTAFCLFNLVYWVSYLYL
T1 sequence (P62813 28-455): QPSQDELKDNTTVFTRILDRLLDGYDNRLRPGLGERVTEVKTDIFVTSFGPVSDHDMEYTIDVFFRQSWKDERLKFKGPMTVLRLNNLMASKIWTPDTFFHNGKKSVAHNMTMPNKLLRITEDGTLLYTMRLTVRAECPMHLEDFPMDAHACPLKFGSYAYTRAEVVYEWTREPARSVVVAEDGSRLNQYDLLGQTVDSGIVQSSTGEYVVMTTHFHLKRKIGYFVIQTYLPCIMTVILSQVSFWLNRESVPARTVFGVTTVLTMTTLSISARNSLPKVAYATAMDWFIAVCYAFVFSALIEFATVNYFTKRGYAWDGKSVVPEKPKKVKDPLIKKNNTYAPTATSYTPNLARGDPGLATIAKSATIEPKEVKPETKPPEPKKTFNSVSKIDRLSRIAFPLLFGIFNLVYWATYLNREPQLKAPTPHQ
T1 sequence (P63138 25-474 limits assumed): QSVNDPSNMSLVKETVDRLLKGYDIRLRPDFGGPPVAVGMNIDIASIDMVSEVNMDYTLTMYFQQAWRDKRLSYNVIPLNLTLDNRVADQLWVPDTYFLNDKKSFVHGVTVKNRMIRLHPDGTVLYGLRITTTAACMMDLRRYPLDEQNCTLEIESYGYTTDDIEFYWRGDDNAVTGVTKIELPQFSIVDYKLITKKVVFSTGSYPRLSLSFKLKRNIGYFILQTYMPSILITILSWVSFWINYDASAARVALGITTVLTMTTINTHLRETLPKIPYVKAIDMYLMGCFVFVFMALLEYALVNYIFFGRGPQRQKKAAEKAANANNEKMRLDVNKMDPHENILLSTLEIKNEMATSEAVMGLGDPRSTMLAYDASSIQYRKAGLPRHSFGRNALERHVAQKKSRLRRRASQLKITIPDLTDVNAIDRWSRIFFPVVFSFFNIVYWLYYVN
T2 sequence (P62813 28-455): as the sequence (P62813 28-455) above
T2 sequence (P63079 26-473): as the sequence (P63079 26-473) above
T7 sequence (P62813 28-455): as the sequence (P62813 28-455) above
T7 sequence (P15431 26-474 R66N): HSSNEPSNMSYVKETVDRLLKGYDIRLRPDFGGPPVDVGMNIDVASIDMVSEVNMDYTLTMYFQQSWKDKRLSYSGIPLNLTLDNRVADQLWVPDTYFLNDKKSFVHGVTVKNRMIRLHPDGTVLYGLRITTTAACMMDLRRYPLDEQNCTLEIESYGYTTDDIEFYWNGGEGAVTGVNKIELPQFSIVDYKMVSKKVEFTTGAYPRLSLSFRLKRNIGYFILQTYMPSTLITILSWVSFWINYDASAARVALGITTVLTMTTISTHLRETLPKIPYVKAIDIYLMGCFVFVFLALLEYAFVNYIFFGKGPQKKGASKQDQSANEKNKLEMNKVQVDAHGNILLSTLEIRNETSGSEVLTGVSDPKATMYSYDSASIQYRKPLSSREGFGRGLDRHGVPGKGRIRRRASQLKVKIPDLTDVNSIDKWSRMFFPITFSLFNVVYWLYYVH
T6 sequence (P62813 28-455): as the sequence (P62813 28-455) above
T6 sequence (P15431 26-474): as the sequence (P15431 26-474 R66N) above, with N41R counted along it
T3 sequence (P62813 28-455): as the sequence (P62813 28-455) above
T3 sequence (P63079 26-473 N66R): as the sequence (P63079 26-473) above, with N41R counted along it

EC50 [1]: 4.31 µM
activity at 0.1 µM ([1]; read-out: efficacy, % of control current (GABA EC3-5 = 100%), α1β2, 100 nM): 105 ± 1.4%
activity at 1 µM ([1]; read-out: efficacy, % of control current (GABA EC3-5 = 100%), α1β2, 1 µM): 134 ± 8.2%
Hill slope (nH) ([1]; α1β2): 2.0±0.9
activity at 0.001 µM ([2]; read-out: efficacy, % of control current (GABA EC3-5 = 100%), α1β3, 1 nM): 100.1 ± 0.1%
activity at 0.003 µM ([2]; read-out: efficacy, % of control current (GABA EC3-5 = 100%), α1β3, 3 nM): 100.1 ± 0.1%
activity at 0.01 µM ([2]; read-out: efficacy, % of control current (GABA EC3-5 = 100%), α1β3, 10 nM): 100.7 ± 0.5%
activity at 0.1 µM ([2]; read-out: efficacy, % of control current (GABA EC3-5 = 100%), α1β3, 100 nM): 109 ± 2.2%
activity at 0.3 µM ([2]; read-out: efficacy, % of control current (GABA EC3-5 = 100%), α1β3, 300 nM): 122 ± 5.4%
activity at 1 µM ([2]; read-out: efficacy, % of control current (GABA EC3-5 = 100%), α1β3, 1 µM): 151 ± 11.5%
activity at 3 µM ([2]; read-out: efficacy, % of control current (GABA EC3-5 = 100%), α1β3, 3 µM): 276 ± 41.7%
activity at 10 µM ([2]; read-out: efficacy, % of control current (GABA EC3-5 = 100%), α1β3, 10 µM): 372 ± 40.1%
Hill slope (nH) ([2]; α1β3): 1.9±0.6
EC50 ([2]; α1β3, co-applied with GABA EC3-5, read-out: EC50): 2.39 µM
EC50 ([2]; α1β3, log of EC50, sign as printed, read-out: LogEC50 (converted)): 2.4 µM and 2.51 µM
EC50 [3]: 3.44 µM
EC50 [4]: 2.1 µM
activity at 0.001 µM ([4]; read-out: efficacy, % of control current (GABA EC3-5 = 100%), α3β3, 1 nM): 101.2 ± 0.8%
activity at 0.01 µM ([4]; read-out: efficacy, % of control current (GABA EC3-5 = 100%), α3β3, 10 nM): 102 ± 1.2%
activity at 0.1 µM ([4]; read-out: efficacy, % of control current (GABA EC3-5 = 100%), α3β3, 100 nM): 106 ± 1.3%
activity at 3 µM ([4]; read-out: efficacy, % of control current (GABA EC3-5 = 100%), α3β3, 3 µM): 226 ± 10.7%
activity at 10 µM ([4]; read-out: efficacy, % of control current (GABA EC3-5 = 100%), α3β3, 10 µM): 285 ± 7%
activity at 30 µM ([4]; read-out: efficacy, % of control current (GABA EC3-5 = 100%), α3β3, 30 µM): 288 ± 8.7%
EC50 [5]: 13.4 µM
activity at 0.001 µM ([5]; read-out: efficacy, % of control current (GABA EC3-5 = 100%), α4β3γ2, 1 nM): 101 ± 1.8%
activity at 0.003 µM ([5]; read-out: efficacy, % of control current (GABA EC3-5 = 100%), α4β3γ2, 3 nM): 96.3 ± 8%
activity at 0.01 µM ([5]; read-out: efficacy, % of control current (GABA EC3-5 = 100%), α4β3γ2, 10 nM): 100 ± 2.2%
activity at 0.03 µM ([5]; read-out: efficacy, % of control current (GABA EC3-5 = 100%), α4β3γ2, 30 nM): 104 ± 4.4%
activity at 0.1 µM ([5]; read-out: efficacy, % of control current (GABA EC3-5 = 100%), α4β3γ2, 100 nM): 120 ± 10.1%
activity at 1 µM ([5]; read-out: efficacy, % of control current (GABA EC3-5 = 100%), α4β3γ2, 1 µM): 162 ± 16.3%
activity at 10 µM ([5]; read-out: efficacy, % of control current (GABA EC3-5 = 100%), α4β3γ2, 10 µM): 267 ± 16.8%
activity at 30 µM ([5]; read-out: efficacy, % of control current (GABA EC3-5 = 100%), α4β3γ2, 30 µM): 315 ± 30.1%
activity at 0.3 µM ([6]; read-out: efficacy, % of control current (GABA EC3-5 = 100%), 300 nM): 194 ± 23.3%
Hill slope (nH) [6]: 1.0±0.4
EC50 ([6]; co-applied with GABA EC3-5, read-out: EC50): 0.77 µM
EC50 ([6]; log of EC50, sign as printed, read-out: LogEC50 (converted)): 0.759 µM
current as % of control at 0.1 µM ([7]; 100nM): 70 ± 5%
current as % of control at 0.3 µM ([7]; 300nM): 62 ± 8%
current as % of control at 1 µM ([7]; 1μM): 62 ± 8%
current as % of control at 3 µM ([7]; 3µM): 60 ± 9%
current as % of control at 10 µM ([7]; 10μM): 60 ± 10%
current as % of control at 30 µM ([7]; 30μM): 60 ± 8%
Compound: Cc1ccc(-n2nc3c4cc(Cl)ccc4[nH]cc-3c2=O)cc1 [Compound 2, 8-Chloro-2-(4-methylphenyl)-2H-pyrazolo[4,3-c]quinolin-3(5H)-one]

From PMC5516028, “Molecular tools for GABAA receptors: High affinity ligands for β1-containing subtypes” (Scientific Reports, 2017)
